Where a name gives a salt, the structure may show the parent alone. Read-outs that look alike come from different tables or passages of the source.
What was measured:
HT29/Mit cells [1] = assay: Antiproliferative activity, 72 h treatment, SRB assay, HT29/Mit resistant line; format: cell-based, human; settings: Homo sapiens
Description: (§1) HT29 and HT29/Mit (line obtained by prolonged exposure to mitoxantrone, and characterised by overexpression of BCRP, which confers cross resistance to topotecan, irinotecan and to its metabolite SN38): maintained in McCoy 5A medium+10% FCS.
(§2) 2.2 Scheme of the Antiproliferative Activity Experiment (Treatment Time: 72 Hours)
(§3) The cells (HT29 and HT29/Mit: 40,000 cells/ml, LoVo, LoVo/Dx and HCT116: 50,000 cells/ml) are seeded in 100 μl of the respective culture media in 96-well plates. 24 hours after seeding, an aliquot (10 μl) of drug at the various concentrations is added. In the samples in which the effect of the combination of two compounds is to be tested the inhibitor is added immediately before the cytotoxic. For each dose or combination of doses/drugs the effect of the treatment is determined in 4-8 replicates.
(§4) After 72 hours of treatment the antiproliferative effect is evaluated using the sulforhodamine B (SRB) assay: the cells are fixed by adding 25 μl of 50% TCA to each well and left for 1 hour at 4° C. After washing them with water and allowing them to dry, 100 μl of 0.4% SRB in 1% acetic acid are added and left for 30 minutes at room temperature. After 4 washes in 1% acetic acid, they are left to dry then the dye fixed by the proteins is dissolved under basic conditions with 100 μl 10 mM cold Tris and the solution is read using a spectrophotometer at 550 nm.
(§5) Percentage cell growth is calculated as the optical density of treated samples compared to the optical density of controls (untreated cells).

HT29 cells [2] = assay: Antiproliferative activity, 72 h treatment, SRB assay, HT29; format: cell-based, human; settings: Homo sapiens
Description: as §1, §2, §3, §4, §5

[3] = biological target: Vacuolar ATPase in bovine chromaffin cells membranes (BCG) (Bos taurus, UniProt P23956+Q29466); assay: Vacuolar ATPase inhibition in bovine chromaffin cells membranes (BCG); format: biochemical; settings: read-out: ATPase activity (IC50) BCG; bovine chromaffin cell membranes
Chain of Vacuolar ATPase in bovine chromaffin cells membranes (BCG) (P23956 whole entry, looked up): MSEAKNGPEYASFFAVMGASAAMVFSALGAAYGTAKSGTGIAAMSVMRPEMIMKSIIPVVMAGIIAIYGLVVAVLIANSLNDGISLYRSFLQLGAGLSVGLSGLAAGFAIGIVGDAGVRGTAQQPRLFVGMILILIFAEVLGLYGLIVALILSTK
Chain of Vacuolar ATPase in bovine chromaffin cells membranes (BCG) (Q29466 whole entry, looked up): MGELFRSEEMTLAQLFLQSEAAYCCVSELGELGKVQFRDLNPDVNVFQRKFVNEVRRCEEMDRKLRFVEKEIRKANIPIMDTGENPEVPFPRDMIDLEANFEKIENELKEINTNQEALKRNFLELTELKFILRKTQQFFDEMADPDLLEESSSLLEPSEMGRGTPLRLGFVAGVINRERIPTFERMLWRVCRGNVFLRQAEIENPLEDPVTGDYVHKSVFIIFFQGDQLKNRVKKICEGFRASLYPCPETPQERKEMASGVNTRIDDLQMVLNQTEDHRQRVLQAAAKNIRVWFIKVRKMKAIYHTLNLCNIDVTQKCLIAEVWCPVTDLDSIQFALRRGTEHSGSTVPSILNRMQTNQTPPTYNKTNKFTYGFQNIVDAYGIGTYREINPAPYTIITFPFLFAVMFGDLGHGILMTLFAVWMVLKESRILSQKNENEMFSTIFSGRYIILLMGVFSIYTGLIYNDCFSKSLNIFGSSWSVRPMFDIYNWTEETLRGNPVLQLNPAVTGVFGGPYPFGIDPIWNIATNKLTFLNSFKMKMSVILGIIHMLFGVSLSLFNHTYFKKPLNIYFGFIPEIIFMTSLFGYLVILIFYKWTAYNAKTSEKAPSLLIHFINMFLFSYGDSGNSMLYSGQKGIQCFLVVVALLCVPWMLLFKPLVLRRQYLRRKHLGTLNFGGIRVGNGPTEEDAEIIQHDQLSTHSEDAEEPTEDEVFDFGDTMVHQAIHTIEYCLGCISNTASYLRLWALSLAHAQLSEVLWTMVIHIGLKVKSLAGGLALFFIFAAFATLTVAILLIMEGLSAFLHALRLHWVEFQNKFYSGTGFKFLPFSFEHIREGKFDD
Description: Inhibition of bafilomycin sensitive ATPase activity is assayed by measuring the release of inorganic phosphate during 30 minutes of incubation, at 37° C., of the human osteoclastoma microsomal fraction in 96-well plates. The reaction medium contains 1 mM ATP, 10 mM Hepes-Tris buffer pH 8, 50 mM KCl, 5 μM valinomycin, 5 μM nigericin, 1 mM CDTA-Tris, 100 μM ammonium molybdate, 0.2 M sucrose and the microsomal fraction (20 μg protein/ml). The reaction is initiated by adding MgSO4 and terminated, after 30 minutes, by adding 4 volumes of the reagent malachite green, prepared according to Chan K., Anal. Biochem. 157, 375-380, 1986.
1.2 Determination of Vacuolar ATpase Inhibition in the Bovine Chromaffin Cells Membranes (BCG)
About 20 adrenal glands (Cidon S., J. Biol. Chem. 258, 2892-2898, 1983) are removed from healthy bovines; the medulla is quickly separated from the cortex, which is discarded. The medulla is homogenised at 4° C. with a suitable medium at pH 7.5, then filtered. The remaining solid material is further homogenised, filtered and recombined with the preceding filtrate, resuspended and centrifuged at 1000 g for 15 minutes; the supernatant obtained is centrifuged at 10000 g for 20 minutes. The resultant pellet is resuspended and stratified through a sucrose gradient formed of a lower part of 15 ml 1.5 M sucrose and an upper part of 10 ml 1.2 M sucrose. After overnight centrifugation at 4° C. with a SW28 rotor at 20000 rpm, the chromaffiln cells sediment into a pellet. This latter is resuspended, centrifuged at 3000 g for 10 minutes, and the supernatant obtained is centrifuged at 200000 g for 60 minutes. The pellet is then resuspended in 4 ml of a suitable medium containing 0.2 μg/ml pepstatin A and 0.4 μg/ml leupeptin and stored under liquid nitrogen.
The method for ATPase inhibition assay is the same as that followed for the osteoclastoma.

HT29 cells [4] = assay: Co-treatment with topotecan, HT29 cells (Combination Index according to Kern); format: cell-based, human; settings: HT29 cells
Description: as §3, §4, §5
(§6) The Combination Index (C.I.) was determined according to Kern's method, 1988 (who continued from Drewinko B, 1976) (Kem D. H., Cancer Res. 48, 117-121, 1988; Drewinko B., Cancer Biochem. Biophys. 1, 187-195, 1976) by means of the following formula: […], where SFa and SFb are the fractions of cells surviving to treatment with compound a and b, respectively; SFab is the fraction surviving to the combination of compounds a and b. If the result is =1, the interaction between the two compounds is additive; if it is >1, the interaction between the two compounds is synergistic; if it is <1, the interaction between the two compounds is antagonistic.

HT29/Mit cells [5] = assay: Co-treatment with topotecan, HT29/Mit resistant cells (Combination Index according to Kern); format: cell-based, human; settings: HT29/Mit cells
Description: as §3, §4, §5, §6

[6] = test system: HT29/Mit human colon carcinoma xenografts; assay: HT29/Mit human colon carcinoma xenograft, antitumor activity; format: in vivo, athymic Swiss nude mice
Text: 1.1 Model of HT29/Mit human colon carcinoma xenografts-Antitumor activity Female athymic Swiss nude mice (8-10 weeks old) (Charles River, Calco, Italy) were used for the experiments. The animals were maintained at constant temperature and humidity, and were allowed to eat and drink freely. The experimental protocol was approved by the Ethics Committee for Animal Experimentation of the Istituto Nazionale Tumori of Milan. The antitumour effectiveness of the compounds of the invention under discussion was tested on athymic mouse models implanted with HT29 and/or HT29/Mit tumour cells: this latter variety is highly resistant to topotecan treatment. The tumour cells were implanted in vivo via subcutaneous injection of 10^7 cells taken from in vitro cultures. Randomized groups of five mice with bilateral subcutaneous tumours were used for the experiment. Topotecan or other known antitumour agents (dissolved in distilled water or an appropriate solvent) and the compounds of the invention (dissolved in Cremophor EL: ethanol: saline solution in the proportions 5:5:90, or in an appropriate solvent) were administered orally from the third day, alone or in combination, in agreement with a treatment scheme selected in an appropriate manner depending on the type of compound to be studied. The weight (or volume) of the tumour in treated mice compared to controls is represented graphically on the y-axis against time (x-axis).

[7] = HT-29/Mit resistant line, 72 h treatment, read-out: Antiproliferative activity (IC50 ± S.D.) HT-29/Mit
[8] = HT-29, 72 h treatment, read-out: Antiproliferative activity (IC50 ± S.D.) HT-29 72 h treatment
[9] = HT-29, HT29/Mit, after 72 hours of treatment, range stated for the group, read-out: IC50 values in the resistant line
[10] = HT-29, HT29, after 72 hours of treatment, range stated for the group, read-out: IC50 values in the sensitive line

Row | Compound | IC50 (HT29/Mit cells [1]; [7]) | IC50 (HT29 cells [2]; [8]) | IC50 [3] | IC50 (HT29/Mit cells [1]; [9]) | IC50 (HT29 cells [2]; [10]) | effect in combination with topotecan (HT29 cells [4]) | effect in combination with topotecan (HT29/Mit cells [5]) | tumor growth inhibition ([6]; 1 mg/kg p.o.) | tumor growth inhibition ([6]; 2 mg/kg p.o.)
1 | COc1ccc(-c2c(C#N)[nH]c3cc(OC)c(OC)cc23)cc1 [Example 17, 5,6-dimethoxy-3-(4-methoxyphenyl)-1H-indole-2-carbonitrile] | 2500 nM | 4900 ± 500 nM | 273 nM | – | – | – | – | – | –
2 | COc1ccc(-c2c(C#N)n(CCN(C)C)c3cc(OC)c(OC)cc23)cc1 [Example 18, 1-(2-Dimethylaminoethyl)-5,6-dimethoxy-3-(4-methoxyphenyl)-1H-indole-2-carbonitrile hydrochloride] | 150 nM | 16700 nM | 567 nM | 100 to 3000 nM | 5000 to 42000 nM | – | – | – | –
3 | COc1ccc(-c2c(-c3ncn[nH]3)[nH]c3cc(OC)c(OC)cc23)cc1 [Example 23, 5,6-Dimethoxy-3-(4-methoxyphenyl)-2-(2H-[1,2,4]triazol-3-yl)-1H-indole] | 2300 nM | 41900 nM | 470 nM | 100 to 3000 nM | 5000 to 42000 nM | synergistic effects | synergistic effects | – | –
4 | COc1ccc(-c2c(-c3nnco3)[nH]c3cc(OC)c(OC)cc23)cc1 [Example 26, 5,6-Dimethoxy-3-(4-methoxyphenyl)-2-[1,3,4]oxadiazol-2-yl-1H-indole] | 2700 nM | 40300 nM | 710 nM | 100 to 3000 nM | 5000 to 42000 nM | synergistic effects | synergistic effects | – | –
5 | COc1ccc(-c2c3n(c4cc(OC)c(OC)cc24)CCNC3=O)cc1 [Example 27, 7,8-Dimethoxy-10-(4-methoxyphenyl)-3,4-dihydro-2H-pyrazino[1,2-a]indol-1-one] | 2900 nM | 5200 nM | 248 nM | – | – | – | – | – | –
6 | COc1ccc(-c2c3n(c4cc(OC)c(OC)cc24)CCNC3)cc1 [Example 28, 7,8-Dimethoxy-10-(4-methoxyphenyl)-1,2,3,4-tetrahydro-pyrazino[1,2-a]indole hydrochloride] | 530 nM | 37300 nM | 1270 nM | 100 to 3000 nM | 5000 to 42000 nM | – | – | – | –
7 | CC[C@@]1(O)C(=O)OCc2c1cc1n(c2=O)Cc2cc3c(CN(C)C)c(O)ccc3nc2-1 [Topotecan, reference compound] | 50600 nM | 70 ± 10 nM | – | – | – | – | – | 62% | 80%
